The record followed here is patent publication US20240368133A1, “Compounds for the Treatment of Pain, in Particular, Neuropathic Pain, and/or Other Diseases or Disorders that are Associated with AT2R and/or AT2R Mediated Signaling” (Confo Therapeutics N.V., priority 2021, published 2024).

One series is described as follows: Kinetic solubility. Format: physicochemical. The following applies: kinetic from dmso stock. Here is the method: Starting from a 20 mM stock solution of test compound in 100% DMSO, dilutions were prepared to a theoretical concentration of 400 μM in duplicates in phosphate-buffered saline pH 7.4 (PBS) (138 mM NaCl, 2.7 mM KCl, 10 mM K-phosphate) and 100 mM citrate buffer pH 3.0 with 2% final DMSO.
The experimental compound dilutions in PBS and citrate buffer were further allowed to equilibrate at 25° C. on a thermostatic orbital shaker for two hours and then centrifuged at 14000 rpm, 5 min and filtered through HTS filter plates using a vacuum manifold. The filtrates of test compounds were diluted 2-fold with acetonitrile with 2% DMSO before measuring. In parallel, compound dilutions in 50% acetonitrile/buffer were prepared to the theoretical concentrations of 0 μM (blank), 100 μM, 200 μM and 400 μM with 2% final DMSO to generate calibration curves.
Ondansetron (Sigma Aldrich USA, cat #03639) was used as a reference to control proper assay performance. 200 μl of each sample were transferred to a 96-well plate and solubility was measured in a 200-550 nm range (in steps of 5 nm). The measurements were performed using a Spectra Max Plus reader in UV-Vis mode. Acquisition and analysis of the data were performed using SoftMax Pro v.5.4 (Molecular Devices) and Excel 2010 data analysis software. Proper absorbance wavelengths for calculations were selected for each compound manually based on absorbance maximums (absolute absorbance unit values for the minimum and maximum concentration points within 0-3 OD range). Each of the final datasets was additionally visually evaluated by the operator and goodness of fit (R2) is calculated for each calibration curve.

A further series deals with CYP2C19 (Homo sapiens (Human), UniProt P33261). In words: CYP inhibition, CYP2C19. Format: in vitro ADME. The following applies: test compound at 10 μM, read-out: % Inhibition (PIN) 2C19. Here is the method:
(§1) The aim of this assay is to determine the inhibitory potential of a test compound. A major concern for drug-drug-interaction is cytochrome P450 inhibition. Reversible CYP inhibition was determined in human liver microsomes using specific probe substrates for human cytochrome P450 isoenzymes CYP1A2, 2C9, 2C19, 2D6 and 3A4. […]
(§2) A 10 mM stock solution of test compound is prepared in methanol. This stock is further serially diluted 1:3 in methanol and then added to mixture containing 50 mM potassium phosphate buffer pH7.4, human liver microsomes (BD Gentest) and probe substrate. After pre-warming 5 min at 37° C., the reaction is started by adding co-factor mix ([…] glucose-6-phosphate, 1.7 mg/mL NADP, 6 U/mL of glucose-6-phosphate dehydrogenase), resulting in a final concentration of test compound at 10 μM (2% MeOH).
(§3) Final concentrations of co-factor mix components are as follows: 1.56 mg/mL glucose-6-phosphate, 0.34 mg/mL NADP, 1.2 U/mL of glucose-6-phosphate dehydrogenase.
(§4) After incubation at 37° C., the reaction (aliquot of 50 μL) is terminated with 150 μL CH3CN:MeOH (2:1) solution with internal standard (warfarin for 2C9, diclofenac for all other tested isoforms). Samples are centrifuged and the supernatant fractions analyzed by LC-MS/MS.
(§5) The instrument responses (ratio of test compound and internal standard peak areas) are referenced to those for solvent controls (assumed as 100%) in order to determine the percentage reduction in probe metabolism. Percent of control activity vs. concentration plots are generated and fitted using GraphPad Prism software to generate IC50.

Another series addresses CYP2D6 (Homo sapiens (Human), UniProt P10635). The series can be described thus: CYP inhibition, CYP2D6. Format: in vitro ADME. The following applies: test compound at 10 μM, read-out: % Inhibition (PIN) 2D6. Here is the method: as §1, §2, §3, §4, §5
A further series concerns the target CYP3A4 (Homo sapiens (Human), UniProt P08684). The series can be described thus: CYP inhibition, CYP3A4. Format: in vitro ADME. The following applies: test compound at 10 μM. Here is the method:
The aim of this assay is to determine the inhibitory potential of a test compound. A major concern for drug-drug-interaction is cytochrome P450 inhibition. Reversible CYP inhibition was determined in human liver microsomes using specific probe substrates for human cytochrome P450 isoenzymes CYP1A2, 2C9, 2C19, 2D6 and 3A4.
The potential for CYP450 inhibition was assessed by performing in vitro inhibition studies using fluorogenic CYP450 substrates with the corresponding CYP450 enzymes and NADPH regeneration system (Vivid CYP450 Screening Kits) with some minor changes to the manufacturer's protocols. The fluorescent signal produced from reaction is directly proportional to the cytochrome P450 activity. In the cases when tested compounds interfere with the CYP450 enzyme-substrate reaction, the fluorescent signal decreases. In brief, the tested compounds were first dissolved in DMSO at 100× concentration (1 mM), and diluted in buffer to 2.5× concentration (25 μM). Then the 2.5× compound solutions were mixed with the Master Pre-mix consisting of Human CYP450+Oxidoreductase and NADP+Regeneration System (glucose-6-phosphate and glucose-6-phosphate dehydrogenase). After 10 minutes pre-incubation, the enzymatic reaction was initiated by the addition of a mix of NADPH and the appropriate CYP450 substrates. The plate was incubated for the desired reaction time (25 min for CYP1A2, CYP2C9, CYP2D6, and CYP3A4, 60 min for CYP2C19) after which Stop Reagent was added and fluorescence measured using SpectraMax Paradigm Multi-Mode Microplate Reader. All test points were performed in quadruplicates at concentration 10 μM (1% DMSO).
as §2, §3, §4, §5

Setting [1] is: aqueous buffer, kinetic solubility, phosphate-buffered saline pH 7.4, 2% DMSO, 25° C., two hours, read-out: PBS solubility, pH 7.4.
The mark [2] stands for this setting: citrate buffer, 25 °C, pH 3, aqueous buffer, read-out: Citrate buffer solubility, pH 3.0.
The mark [3] stands for this setting: human, probe not marked, read-out: % Inhibition (PIN) 3A4.
Setting [4] is: pH 7.4, probe substrate Midazolam (M), human liver microsomes, read-out: % Inhibition (PIN) 3A4.
The mark [5] stands for this setting: pH 7.4, probe substrate Testosterone (T), human liver microsomes, read-out: % Inhibition (PIN) 3A4 (T).

Structures are written as SMILES. Values after ≈ are worked out from the molar mass of the structure shown. Like-named read-outs stand apart in the source and are kept apart here.

Chain of CYP2D6 (P10635 whole entry): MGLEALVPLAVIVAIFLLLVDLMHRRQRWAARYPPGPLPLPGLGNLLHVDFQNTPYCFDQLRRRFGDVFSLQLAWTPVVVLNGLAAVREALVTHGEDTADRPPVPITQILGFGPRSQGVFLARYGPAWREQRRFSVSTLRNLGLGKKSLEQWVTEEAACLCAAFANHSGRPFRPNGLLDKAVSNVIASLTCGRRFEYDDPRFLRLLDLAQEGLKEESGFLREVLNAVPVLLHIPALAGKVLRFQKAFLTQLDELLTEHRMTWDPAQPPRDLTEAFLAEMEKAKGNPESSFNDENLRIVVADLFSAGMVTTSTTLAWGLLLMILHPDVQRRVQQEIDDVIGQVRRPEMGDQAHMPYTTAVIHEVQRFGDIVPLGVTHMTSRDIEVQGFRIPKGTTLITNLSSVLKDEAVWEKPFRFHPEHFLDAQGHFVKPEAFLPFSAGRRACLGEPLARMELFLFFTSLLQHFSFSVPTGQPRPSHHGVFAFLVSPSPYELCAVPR
Chain of CYP3A4 (P08684 whole entry): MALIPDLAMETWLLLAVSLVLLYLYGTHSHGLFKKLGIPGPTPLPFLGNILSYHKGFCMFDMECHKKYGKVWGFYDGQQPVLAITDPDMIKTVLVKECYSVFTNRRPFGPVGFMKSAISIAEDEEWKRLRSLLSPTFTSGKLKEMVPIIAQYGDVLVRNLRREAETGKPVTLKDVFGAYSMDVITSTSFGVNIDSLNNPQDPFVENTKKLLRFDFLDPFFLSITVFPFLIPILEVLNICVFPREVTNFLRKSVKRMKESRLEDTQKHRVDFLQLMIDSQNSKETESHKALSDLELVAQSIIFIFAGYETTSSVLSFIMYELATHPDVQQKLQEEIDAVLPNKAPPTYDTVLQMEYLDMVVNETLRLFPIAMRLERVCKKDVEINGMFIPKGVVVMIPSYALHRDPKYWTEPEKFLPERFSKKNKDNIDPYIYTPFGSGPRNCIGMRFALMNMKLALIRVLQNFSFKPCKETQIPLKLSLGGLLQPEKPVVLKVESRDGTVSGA
Chain of CYP2C19 (P33261 whole entry): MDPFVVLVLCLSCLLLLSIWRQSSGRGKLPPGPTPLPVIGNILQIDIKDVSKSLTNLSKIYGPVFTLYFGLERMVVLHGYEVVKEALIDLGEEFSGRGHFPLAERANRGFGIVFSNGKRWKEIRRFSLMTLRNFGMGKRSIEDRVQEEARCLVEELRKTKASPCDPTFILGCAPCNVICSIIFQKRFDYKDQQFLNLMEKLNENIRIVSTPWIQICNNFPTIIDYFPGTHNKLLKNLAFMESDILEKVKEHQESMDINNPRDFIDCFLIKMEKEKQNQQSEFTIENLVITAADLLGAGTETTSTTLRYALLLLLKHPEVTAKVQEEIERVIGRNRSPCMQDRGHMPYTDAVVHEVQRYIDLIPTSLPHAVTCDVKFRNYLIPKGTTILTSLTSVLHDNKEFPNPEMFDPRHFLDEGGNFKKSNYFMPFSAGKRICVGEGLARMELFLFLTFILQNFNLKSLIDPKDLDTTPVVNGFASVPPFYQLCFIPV

Take `CC(C)Oc1ccc(-c2nn[nH]n2)c(N2CCN(Cc3nc4ccccc4s3)CC2)c1` [Compound A-51, 2-[[4-[5-isoprop-oxy-2-(2H-tetrazol-5-yl)phenyl]piper-azin-1-yl]methyl]-1,3-benzothiazole]: the values for the solubility at 2 h in “Kinetic solubility” (setting [1]) and in “Kinetic solubility” (setting [2]) were at least 400 µM and 4 µM (≈ 1.74 µg/mL), respectively.
On to `CC(C)Cc1ccc(-c2nn[nH]n2)c(N2CCN(Cc3ncccn3)CC2)c1` [Compound A-88], for which the figures for the inhibition at 10 µM at CYP2C19, on CYP2D6 and on CYP3A4 (setting [3]) were 17.6%, 6.32% and 21.1%, respectively.
Consider `CCC1CN(Cc2cccnn2)CCN1c1cc(CC(C)C)cc(F)c1-c1nn[nH]n1` (stereo not shown) [Compound A-181, 3-[[3-ethyl-4-[3-fluoro-5-isobutyl-2-(2H-tetrazol-5-yl)phenyl]piperazin-1-yl]methyl]pyridazine], for which the solubility (in general, the concentration that dissolves in the medium under given conditions) at 2 h in the series “Kinetic solubility” (setting [1]) was at least 400 µM; in “Kinetic solubility” (setting [2]) it was 388 µM (≈ 165 µg/mL).
For `CC(C)Cc1cc(F)c(-c2nn[nH]n2)c(N2CC(C)N(Cc3cccnn3)CC2C)c1` (stereo not shown) [Compound A-183, 3-[[4-[3-fluoro-5-isobutyl-2-(2H-tetrazol-5-yl)phen-yl]-2,5-dimethyl-piperazin-1-yl]-methyl]pyridazine], the solubility at 2 h was determined as 383 µM (≈ 163 µg/mL) in “Kinetic solubility” (setting [1]) and 377 µM (≈ 160 µg/mL) in the series “Kinetic solubility” (setting [2]).
Consider `CC(C)Oc1ccc(-c2nn[nH]n2)c(N2CCN(Cc3nc4ccccc4c(=O)[nH]3)CC2)c1` [Compound A-32], for which the solubility at 2 h was determined as 394 µM (≈ 176 µg/mL) in “Kinetic solubility” (setting [1]) and 399 µM (≈ 178 µg/mL) in “Kinetic solubility” (setting [2]). The inhibition (commonly the change of the read-out against control, counted positive when it falls) at 10 µM was determined as 48.6% at CYP2C19, 38.2% at CYP2D6 and 68.2% at CYP3A4 (setting [3]).
For `CC(C)Oc1ccc(-c2nn[nH]n2)c(N2CCN(Cc3nc4ccccc4n3C)CC2)c1` [Compound A-24, 2-[[4-[5-isopropoxy-2-(2H-tetrazol-5-yl)phenyl]piperazin-1-yl]methyl]-1-methyl-benzimidazole] the same measures were at least 400 µM, at least 400 µM, 30.9%, 3.85% and 59.5%.
As for `CCC1CN(c2cc(CC(C)C)cc(F)c2-c2nn[nH]n2)CCN1Cc1cccnn1` (stereo not shown) [Compound A-178, 3-[[2-ethyl-4-[3-fluoro-5-isobutyl-2-(2H-tetrazol-5-yl)phenyl]piperazin-1-yl]methyl]pyridazine], the solubility at 2 h in “Kinetic solubility” (setting [1]) and in “Kinetic solubility” (setting [2]) was at least 400 µM throughout. In addition, the inhibition at 10 µM is 7.77% at CYP2C19, 25.6% on CYP2D6 and 8% on CYP3A4 (setting [3]).
As to `CC(C)Cc1ccc(-c2nn[nH]n2)c(N2CCN(Cc3nccn3C)CC2)c1` [Compound A-83, 1-[5-isobutyl-2-(2H-tetrazol-5-yl)-phenyl]-4-[(1-meth-ylimidazol-2-yl)-methyl]piperazine], the results for the inhibition at 10 µM at CYP2C19, on CYP2D6 and on CYP3A4 (setting [3]) were 6.38%, -0.65% and 38.7%, respectively.
Take `Cc1cnc(CN2CCN(c3cc(CC(C)C)cc(F)c3-c3nn[nH]n3)C[C@@H]2C)s1` [Compound A-223, 2-[[(2S)-4-[3-fluoro-5-isobutyl-2-(2H-tetrazol-5-yl)phenyl]-2-methyl-piperazin-1-yl]methyl]-5-methyl-thiazole]: the inhibition at 10 µM is 25% at CYP2C19, 15% at CYP2D6, 82% at CYP3A4 (setting [4]) and 28% at CYP3A4 (setting [5]).
With `CC(C)Cc1ccc(-c2nn[nH]n2)c(N2CCN(Cc3cccnn3)CC2)c1` [Compound A-90, 3-[[4-[5-isobutyl-2-(2H-tetrazol-5-yl)phenyl]piperazin-1-yl]methyl]pyridazine], the solubility at 2 h in “Kinetic solubility” (setting [1]) and in the series “Kinetic solubility” (setting [2]) was at least 400 µM in each case. Moreover, the inhibition at 10 µM came out at 27.9% on CYP2C19, 1.84% at CYP2D6 and 55.3% on CYP3A4 (setting [3]).
For `CCCCNC(=O)NS(=O)(=O)c1ccc(C)cc1N1CCN(Cc2nc3ccccc3n2C)CC1` [Compound A-12, 1-butyl-3-[4-methyl-2-[4-[(1-methylbenzimidazol-2-yl)methyl]piperazin-1-yl]phenyl]sulfonyl-urea], the results for the solubility at 2 h in “Kinetic solubility” (setting [1]) and in “Kinetic solubility” (setting [2]) were 54 µM (≈ 26.9 µg/mL) and at least 400 µM, respectively.
As for `CC(C)Cc1cc(F)c(-c2nn[nH]n2)c(N2CCN(Cc3ccccn3)[C@@H](C)C2)c1` [Compound A-217, (2S)-4-[3-fluoro-5-isobutyl-2-(2H-tetrazol-5-yl)phenyl]-2-methyl-1-(2-pyridylmethyl)piperazine], the inhibition at 10 µM at CYP2C19 was 39%; on CYP2D6 it was 68%; at CYP3A4 (setting [4]), 73%; on CYP3A4 (setting [5]), 25%.
Consider `CCCCOC(=O)NS(=O)(=O)c1ccc(C(F)(F)F)cc1N1CCN(Cc2nc3ccccc3n2C)CC1` [Compound A-09, butyl N-[2-[4-[(1-methylbenzimidazol-2-yl)methyl]piperazin-1-yl]-4-(trifluoromethyl)phenyl]sulfonylcarbamate], for which the solubility at 2 h in “Kinetic solubility” (setting [1]) was 318 µM (≈ 176 µg/mL); in the series “Kinetic solubility” (setting [2]) it was at least 400 µM.
As for `CC(C)Cc1ccc(-c2nn[nH]n2)c(N2CCN(Cc3ccnn3C)CC2)c1` [Compound A-84, 1-[5-isobutyl-2-(2H-tetrazol-5-yl)phenyl]-4-[(1-methylpyrazol-5-yl)methyl]piperazine], the results for the inhibition at 10 µM on CYP2C19, at CYP2D6 and at CYP3A4 (setting [3]) were 18.9%, -7.67% and 49.1%, respectively.
Take `CC(C)Cc1ccc(-c2nn[nH]n2)c(N2CCN(Cc3nc4ccccc4n3C)CC2)c1` [Compound A-20, 2-[[4-[5-isobutyl-2-(2H-tetrazol-5-yl)-phenyl]piperazin-1-yl]methyl]-1-meth-yl-benzimidazole]: the solubility at 2 h in the series “Kinetic solubility” (setting [1]) and in the series “Kinetic solubility” (setting [2]) was at least 400 µM in each case.
Regarding `Cc1cc(CN2CCN(c3cc(CC(C)C)ccc3-c3nn[nH]n3)CC2)no1` [Compound A-82, 3-[[4-[5-isobutyl-2-(2H-tetrazol-5-yl)phenyl]piperazin-1-yl]methyl]-5-methyl-isoxazole], the inhibition at 10 µM at CYP2C19 is -4.12%; on CYP2D6 it was -2.54%; on CYP3A4 (setting [3]), 50.6%.
